# Target: T1, human CTPS1 (Homo sapiens, UniProt P17812)
# T1 construct: purchased Proteros biostructures GmbH
# T1 sequence (P17812 1-591): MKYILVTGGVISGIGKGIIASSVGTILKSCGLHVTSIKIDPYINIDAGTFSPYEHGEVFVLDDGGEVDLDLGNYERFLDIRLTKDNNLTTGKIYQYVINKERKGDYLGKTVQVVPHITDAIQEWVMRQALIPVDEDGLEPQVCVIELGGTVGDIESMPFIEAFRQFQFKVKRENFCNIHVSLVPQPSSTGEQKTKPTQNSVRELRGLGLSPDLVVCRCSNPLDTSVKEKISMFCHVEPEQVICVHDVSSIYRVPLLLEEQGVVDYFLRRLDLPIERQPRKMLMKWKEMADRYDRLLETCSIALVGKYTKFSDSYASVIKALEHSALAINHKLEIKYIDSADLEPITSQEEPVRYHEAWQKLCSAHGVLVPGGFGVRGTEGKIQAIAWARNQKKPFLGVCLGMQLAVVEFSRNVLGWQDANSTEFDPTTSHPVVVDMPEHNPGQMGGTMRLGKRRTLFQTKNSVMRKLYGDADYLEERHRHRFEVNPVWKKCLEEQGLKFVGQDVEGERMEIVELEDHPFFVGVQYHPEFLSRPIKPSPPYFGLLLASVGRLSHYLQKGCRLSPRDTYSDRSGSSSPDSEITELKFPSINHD
# Experiment: Human CTPS1 enzyme inhibition, ADP-Glo Max assay
# Format: biochemical
# Details: human full length CTPS1, read-out: CTPS1 (Human CTPS1 Enzyme Inhibition data grouped by potency range, IC50)
# Procedure, shortened: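 Full-length C-terminal FLAG-His-tagged protein in 50 mM Tris pH 8.0, 10 mM MgCl2, 0.01% Tween-20 and 2 mM L-cysteine, preincubated with compound for 10 min at 25 °C. The substrate mix held ATP 0.31 mM, GTP 0.034 mM, UTP 0.48 mM and L-glutamine 0.186 mM, and the reaction ran within its linear phase. ADP was read by ADP-Glo Max luminescence; IC50 from the % inhibition curve.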
row,IC50 [µM],Structure (SMILES)
1,< 0.1,"O=C(NC1(c2csc(NS(=O)(=O)C3CC3)n2)CC1)c1ccc(-c2cncc(C(F)(F)F)n2)cc1 [Example R84, N-(1-(2-(cyclopropanesulfonamido)thiazol-4-yl)cyclopropyl)-4-(6-(trifluoromethyl)pyrazin-2-yl)benzamide]"
2,0.1 to 1,"COCCC(NC(=O)c1ccc(-c2cncc(F)c2)cc1)c1csc(NS(=O)(=O)C2CC2)n1 (centres unmarked) [Example R85, N-(1-(2-(cyclopropanesulfonamido)thiazol-4-yl)-3-methoxypropyl)-4-(5-fluoropyridin-3-yl)benzamide]"
3,0.1 to 1,"CCc1cncc(-c2ccc(C(=O)NC(CCOC)c3csc(NS(=O)(=O)C4CC4)n3)c(F)c2)n1 (centres unmarked) [Example R86, N-(1-(2-(cyclopropanesulfonamido)thiazol-4-yl)-3-methoxypropyl)-4-(6-ethylpyrazin-2-yl)-2-fluorobenzamide]"
4,0.1 to 1,"COCCC(NC(=O)c1ccc(-c2cncc(C(F)(F)F)n2)cc1F)c1csc(NS(=O)(=O)C2CC2)n1 (centres unmarked) [Example R87, N-(1-(2-(cyclopropanesulfonamido)thiazol-4-yl)-3-methoxypropyl)-2-fluoro-4-(6-(trifluoromethyl)pyrazin-2-yl)benzamide]"
5,0.1 to 1,"CCOc1cncc(-c2ccc(C(=O)NC(CCOC)c3csc(NS(=O)(=O)C4CC4)n3)c(F)c2)n1 (centres unmarked) [Example R88, N-(1-(2-(cyclopropanesulfonamido)thiazol-4-yl)-3-methoxypropyl)-4-(6-ethoxypyrazin-2-yl)-2-fluorobenzamide]"
6,< 0.1,"COCCC(NC(=O)c1ccc(-c2cncc(OC(C)C)n2)cc1F)c1csc(NS(=O)(=O)C2CC2)n1 (centres unmarked) [Example R89, N-(1-(2-(cyclopropanesulfonamido)thiazol-4-yl)-3-methoxypropyl)-2-fluoro-4-(6-isopropoxypyrazin-2-yl)benzamide]"
7,< 0.1,"CCOc1cncc(-c2ccc(C(=O)NC(CCOC)c3csc(NS(=O)(=O)C4CC4)n3)cc2)n1 (centres unmarked) [Example R90, N-(1-(2-(cyclopropanesulfonamido)thiazol-4-yl)-3-methoxypropyl)-4-(6-ethoxypyrazin-2-yl)benzamide]"
8,< 0.1,"CCOc1cncc(-c2ccc(C(=O)NC(C)c3csc(NS(=O)(=O)C4CC4)n3)c(F)c2)n1 (centres unmarked) [Example R91, N-(1-(2-(cyclopropanesulfonamido)thiazol-4-yl)ethyl)-4-(6-ethoxypyrazin-2-yl)-2-fluorobenzamide]"

# Reference: patent US11505547B2, “Compounds” (STEP PHARMA S.A.S., priority 2017, dated 2022)
